Laboratory results reported in ChEMBL document CHEMBL1201862, “PubChem BioAssay data set” (2004).
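Compound exposure: 48 hours, 5 concentrations, 96-well plates. GI50 marks 50% less growth.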 Active and inactive are the calls of the source. Cut-off read from the data, not from the text of the source: active = GI50 up to about 1.1 µM and inactive = higher.

Tests used:
Assay in all cases: inhibition of tumour cell growth, NCI panel, 48 h
TK-10 = system: TK-10
COLO 205 = system: COLO 205
HCT-116 = system: HCT-116
SW-620 = system: SW-620
SK-MEL-28 = system: SK-MEL-28
CAKI-1 = system: CAKI-1
A549 = system: A549
SF-539 = system: SF-539
NCI-H226 = system: NCI-H226
Malme-3M = system: Malme-3M
UACC-62 = system: UACC-62
HCC 2998 = system: HCC 2998
DMS-114 = system: DMS-114
SK-OV-3 = system: SK-OV-3
HT-29 = system: HT-29
M19-MEL = system: M19-MEL
HCT-15 = system: HCT-15
OVCAR-4 = system: OVCAR-4

| SMILES | GI50 (TK-10) | GI50 (COLO 205) | GI50 (HCT-116) | GI50 (SW-620) | GI50 (SK-MEL-28) | GI50 (CAKI-1) | GI50 (A549) | GI50 (SF-539) | GI50 (NCI-H226) | GI50 (Malme-3M) | GI50 (UACC-62) | GI50 (HCC 2998) | GI50 (DMS-114) | GI50 (SK-OV-3) | GI50 (HT-29) | GI50 (M19-MEL) | GI50 (HCT-15) [µM] | GI50 (OVCAR-4) |
| --- | --- | --- | --- | --- | --- | --- | --- | --- | --- | --- | --- | --- | --- | --- | --- | --- | --- | --- |
| O=C1CC23CC(=O)CC2(C1)c1ccccc1C3=O (stereo not drawn) | > 100 µM (inactive) | > 100 µM (inactive) | > 100 µM (inactive) | > 100 µM (inactive) | > 100 µM (inactive) | > 100 µM (inactive) | > 100 µM (inactive) | > 100 µM (inactive) | > 100 µM (inactive) | > 100 µM (inactive) | > 100 µM (inactive) | > 100 µM (inactive) | > 100 µM (inactive) | > 100 µM (inactive) | > 100 µM (inactive) | > 100 µM (inactive) | – | – |
| COc1ccc(C2=C3c4cc(OC)c(OC)cc4CCN3C(=S)SS2)cc1OC | > 100 µM (inactive) | > 100 µM (inactive) | > 100 µM (inactive) | 95.9 µM (inactive) | 70.6 µM (inactive) | 77.6 µM (inactive) | > 100 µM (inactive) | > 100 µM (inactive) | > 100 µM (inactive) | 24 µM (inactive) | 22 µM (inactive) | > 100 µM (inactive) | 65.2 µM (inactive) | > 100 µM (inactive) | 72.8 µM (inactive) | 53.2 µM (inactive) | 77.6 | 48.4 µM (inactive) |
| COC1CC(OS(=O)(=O)c2ccc(C)cc2)C(OC(=O)c2ccccc2)C(C)O1 (stereo not drawn) | > 10 µM (inactive) | > 10 µM (inactive) | > 10 µM (inactive) | > 10 µM (inactive) | > 10 µM (inactive) | > 10 µM (inactive) | > 10 µM (inactive) | > 10 µM (inactive) | > 10 µM (inactive) | > 10 µM (inactive) | > 100 µM (inactive) | > 10 µM (inactive) | > 100 µM (inactive) | > 10 µM (inactive) | > 10 µM (inactive) | > 10 µM (inactive) | > 10 | > 10 µM (inactive) |
| CCCCCCCCCCCC(=O)OCCOCCOCCOCCOCCOC(=O)CCCCCCCCCCC | > 100 µM (inactive) | > 100 µM (inactive) | > 100 µM (inactive) | > 100 µM (inactive) | > 100 µM (inactive) | > 100 µM (inactive) | > 100 µM (inactive) | – | > 100 µM (inactive) | > 100 µM (inactive) | 56.2 µM (inactive) | > 100 µM (inactive) | > 100 µM (inactive) | > 100 µM (inactive) | > 100 µM (inactive) | > 100 µM (inactive) | > 100 | > 100 µM (inactive) |
| O=C(Nc1cc(C(F)(F)F)ccc1Cl)C(=O)C(C(=O)c1ccc2ccccc2c1)C1OC(=O)c2ccccc21 (stereo not drawn) | 20.7 µM (inactive) | 10.4 µM (inactive) | 4.8 µM (inactive) | 6.35 µM (inactive) | 5.13 µM (inactive) | 7.21 µM (inactive) | 9.57 µM (inactive) | 2.08 µM (inactive) | 0.881 µM (active) | 11.6 µM (inactive) | 7.26 µM (inactive) | 10.1 µM (inactive) | 11.4 µM (inactive) | 31.3 µM (inactive) | 13.8 µM (inactive) | 11.8 µM (inactive) | 6.32 | 18 µM (inactive) |
| C=C1CC(c2ccc(O)c(OC)c2)Oc2c(OC)cccc21 (stereo not drawn) | 99.3 µM (inactive) | > 100 µM (inactive) | 31.2 µM (inactive) | 34 µM (inactive) | 43.5 µM (inactive) | 34.8 µM (inactive) | 33.7 µM (inactive) | 21.3 µM (inactive) | > 100 µM (inactive) | – | 35.4 µM (inactive) | > 100 µM (inactive) | 20.4 µM (inactive) | > 100 µM (inactive) | 55 µM (inactive) | 48 µM (inactive) | 34 | 54 µM (inactive) |
| Cc1cc2c3ccccc3n(C)c2c2c1C(=O)c1ccccc1C2=O | 32.5 µM (inactive) | 21.1 µM (inactive) | 14.8 µM (inactive) | 25 µM (inactive) | 18.6 µM (inactive) | 21.9 µM (inactive) | 21.3 µM (inactive) | > 100 µM (inactive) | 10.8 µM (inactive) | 18.2 µM (inactive) | 20.8 µM (inactive) | 18.3 µM (inactive) | 17.1 µM (inactive) | 22.2 µM (inactive) | 24.9 µM (inactive) | 3.01 µM (inactive) | – | 17.8 µM (inactive) |
| COC(=O)C(C(=O)C(=O)Nc1c(Cl)cc([N+](=O)[O-])cc1Cl)c1nc2cc(C)c(C)cc2nc1O (stereo not drawn) | > 100 µM (inactive) | > 100 µM (inactive) | > 100 µM (inactive) | > 100 µM (inactive) | – | > 100 µM (inactive) | > 100 µM (inactive) | > 100 µM (inactive) | > 100 µM (inactive) | > 100 µM (inactive) | 59.2 µM (inactive) | > 100 µM (inactive) | 76.4 µM (inactive) | > 100 µM (inactive) | > 100 µM (inactive) | > 100 µM (inactive) | > 100 | > 100 µM (inactive) |
